The record followed here is ChEMBL document CHEMBL4261565, “A systematic analysis of atomic protein-ligand interactions in the PDB” (Medchemcomm, 2017).

Chain of Coagulation factor X (P00742 41-179 limits assumed): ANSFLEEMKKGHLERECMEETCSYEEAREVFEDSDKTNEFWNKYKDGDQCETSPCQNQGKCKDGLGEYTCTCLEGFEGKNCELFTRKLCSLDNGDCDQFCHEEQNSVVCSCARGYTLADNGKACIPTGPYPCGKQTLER
Chain of Coagulation factor X (P00742 235-488 limits assumed): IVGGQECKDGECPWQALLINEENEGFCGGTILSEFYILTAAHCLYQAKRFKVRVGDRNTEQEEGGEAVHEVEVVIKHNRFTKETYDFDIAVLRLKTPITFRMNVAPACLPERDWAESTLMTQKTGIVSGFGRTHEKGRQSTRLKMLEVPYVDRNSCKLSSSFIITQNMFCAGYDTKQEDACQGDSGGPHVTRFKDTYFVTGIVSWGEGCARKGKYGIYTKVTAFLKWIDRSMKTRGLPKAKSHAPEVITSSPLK

The experiment has as its target Coagulation factor X (Homo sapiens, UniProt P00742). The experiment in a line: Inhibition of human factor 10a using […] as substrate by spectrophotometric method.
Turning to `CC(C)(C)CCCN1C(=O)[C@@H]2[C@H](C1=O)[C@H](c1cc(-c3ccc(Cl)s3)on1)N1CCC[C@@H]21` (racemic), affinity was put at a Ki of 550 nM.
With `NCCCN1C(=O)[C@@H]2[C@H](C1=O)[C@H](c1cc(-c3ccc(Cl)s3)on1)N1CCC[C@@H]21` (racemic), the Ki (usually a dissociation constant, usually derived from enzyme kinetics or from competition with a known ligand) was found to be 9800 nM.
`C[N+](C)(C)CCCN1C(=O)[C@@H]2[C@H](C1=O)[C@H](c1cc(-c3ccc(Cl)s3)on1)N1CCC[C@@H]21` (racemic) came in with a Ki of 9 nM. Against the preceding compound, the Ki is about 1100-fold lower.
`CNCCCN1C(=O)[C@@H]2[C@H](C1=O)[C@H](c1cc(-c3ccc(Cl)s3)on1)N1CCC[C@@H]21` (racemic): the Ki was 911 nM.
Take `CN(C)CCCN1C(=O)[C@@H]2[C@H](C1=O)[C@H](c1cc(-c3ccc(Cl)s3)on1)N1CCC[C@@H]21` (racemic): the Ki is 56 nM. Against the preceding compound, the Ki is about 16-fold lower.
